From PubChem BioAssay AID1330 (NMMLSC, 2008)
Calls of active or inactive are those of the source. The rule behind the calls is not given here.

Biological target: Bcl-2-like protein 2 (Homo sapiens) (UniProt Q92843)
Assay: Bcl-W/Bim binding regulators – biochemical, multiplexed, bead-based flow cytometry, fluorescence, dose response (AID 1330)

Bcl-2-like protein 2 (Homo sapiens), sequence (Q92843 whole entry, looked up): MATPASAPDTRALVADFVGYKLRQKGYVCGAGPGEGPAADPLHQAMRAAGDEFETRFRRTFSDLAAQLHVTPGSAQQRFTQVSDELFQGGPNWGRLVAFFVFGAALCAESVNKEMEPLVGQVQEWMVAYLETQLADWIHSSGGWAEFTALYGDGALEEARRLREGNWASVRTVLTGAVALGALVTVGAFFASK

| Compound | EC50 |
| --- | --- |
| O=C(N/N=C/c1ccc(O)c(O)c1O)/C(=C/c1ccc([N+](=O)[O-])cc1)NC(=O)c1ccccc1 | inactive |
| COc1cccc(/C=N/Nc2nn3cnnc3c3ccccc23)c1 | inactive |
| COc1cccc(/C=N/Nc2nn3cnnc3c3ccccc23)c1O | inactive |
| O=[N+]([O-])c1ccc(N/N=C/c2ccc(O)c(O)c2O)c(S(=O)(=O)N2CCOCC2)c1 | 3.52 µM |
| CCC(=O)N(CC)C1=C(O)c2ccccc2C(=O)C1=O | inactive |
